Source: patent US10287269B2, “Pyrazolyl pyrimidinone compounds as PDE2 inhibitors” (Merck Sharp & Dohme Corp., priority 2015, dated 2019)
Like-named read-outs stand apart in the source and are kept apart here.

Molecular target: T1, human PDE2A1 (Homo sapiens, UniProt O00408)
T1 construct: GST; purchased BPS Bioscience (San Diego, Calif.) 60020; host or cells: insect cells
Experiment: PDE2 IMAP FP inhibition assay, human enzyme (PDE selectivity panel format)
Type: biochemical
Summary of the method: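 GST-tagged human PDE2A1 from insect cells, run at room temperature in 10 mM Tris pH 7.2, 10 mM MgCl2, 1 mM DTT with 50 nM FAM-cAMP plus 1000 nM cGMP for 60 min. IMAP fluorescence polarization read-out; apparent Ki derived using apparent KM 10,000 nM.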

[1] = Lab A, read-out: Human PDE2 Ki (nM) Lab A
[2] = Lab B, read-out: Human PDE2 Ki (nM) Lab B

T1 sequence (O00408 1-920 isoform O00408-2): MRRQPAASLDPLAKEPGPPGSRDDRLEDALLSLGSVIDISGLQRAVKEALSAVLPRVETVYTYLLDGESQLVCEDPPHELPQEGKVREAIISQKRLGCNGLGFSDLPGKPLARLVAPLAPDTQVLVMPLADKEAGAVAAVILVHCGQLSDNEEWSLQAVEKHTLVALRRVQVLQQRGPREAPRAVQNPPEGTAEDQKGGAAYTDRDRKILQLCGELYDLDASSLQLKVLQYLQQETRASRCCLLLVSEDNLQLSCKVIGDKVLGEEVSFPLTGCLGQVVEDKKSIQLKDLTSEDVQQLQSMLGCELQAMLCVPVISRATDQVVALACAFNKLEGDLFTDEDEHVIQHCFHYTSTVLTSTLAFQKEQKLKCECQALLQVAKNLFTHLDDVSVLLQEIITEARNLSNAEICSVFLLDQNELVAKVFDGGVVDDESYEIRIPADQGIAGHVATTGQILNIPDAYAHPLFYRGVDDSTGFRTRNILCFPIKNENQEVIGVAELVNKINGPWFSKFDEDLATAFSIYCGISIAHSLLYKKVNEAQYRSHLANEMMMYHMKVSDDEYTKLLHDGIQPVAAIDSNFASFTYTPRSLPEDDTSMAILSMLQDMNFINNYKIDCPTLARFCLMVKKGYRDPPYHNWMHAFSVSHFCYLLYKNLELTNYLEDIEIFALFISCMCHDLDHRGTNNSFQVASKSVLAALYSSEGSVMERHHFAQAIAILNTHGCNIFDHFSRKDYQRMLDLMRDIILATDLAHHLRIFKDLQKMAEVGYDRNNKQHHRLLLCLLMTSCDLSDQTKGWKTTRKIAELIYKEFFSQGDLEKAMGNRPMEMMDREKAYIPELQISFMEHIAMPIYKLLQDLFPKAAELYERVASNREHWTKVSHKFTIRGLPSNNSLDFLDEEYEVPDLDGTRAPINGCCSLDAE

Row | Ki [1] | Ki [2] | Structure (SMILES)
1 | 10.4 nM |  | CCc1nc(-c2cnn(C(C)c3ccc(C(F)(F)F)cc3F)c2)cc(=O)[nH]1 (single isomer, unassigned) [Example 85, (R)- or (S)-2-ethyl-6-(1-(1-(2-fluoro-4-(trifluoromethyl)phenyl)ethyl)-1H-pyrazol-4-yl)pyrimidin-4(3H)-one]
2 | 48.4 nM |  | Cc1nc(-c2cnn(C(C)c3ccc(C4CC4)cc3F)c2)cc(=O)[nH]1 (single isomer, unassigned) [Example 91, (R)- or (S)-6-(1-(1-(4-cyclopropyl-2-fluorophenyl)ethyl)-1H-pyrazol-4-yl)-2-methylpyrimidin-4(3H)-one]
3 | 52.5 nM |  | Cc1nc(-c2cnn(C(C)c3ccc(C4CC4)cc3C)c2)cc(=O)[nH]1 (single isomer, unassigned) [Example 94, (S)- or (R)-6-(1-(1-(4-cyclopropyl-2-methylphenyl)ethyl)-1H-pyrazol-4-yl)-2-methylpyrimidin-4(3H)-one]
4 | 10.4 nM |  | CCc1ccc(C(C)n2cc(-c3cc(=O)[nH]c(C)n3)cn2)c(Cl)c1 (single isomer, unassigned) [Example 99, (R)- or (S)-6-(1-(1-(2-chloro-4-ethylphenyl)ethyl)-1H-pyrazol-4-yl)-2-methylpyrimidin-4(3H)-one]
5 | 38.5 nM |  | CCc1ccc(C(C)n2cc(-c3cc(=O)[nH]c(C)n3)cn2)c(F)c1 (single isomer, unassigned) [Example 101, (R)- or (S)-6-(1-(1-(4-ethyl-2-fluorophenyl)ethyl)-1H-pyrazol-4-yl)-2-methylpyrimidin-4(3H)-one]
6 |  | 103 nM | Cc1nc(-c2cnn(C(C)c3ccc(OC(F)(F)F)cc3)c2)cc(=O)[nH]1 (single isomer, unassigned) [Example 127, (R)- or (S)-2-methyl-6-(1-(1-(4-(trifluoromethoxy)phenyl)ethyl)-1H-pyrazol-4-yl)pyrimidin-4(3H)-one]
7 |  | 38.5 nM | COc1ccc(Cc2nc(-n3ccc(C(C)c4ccc(C(F)(F)F)cc4)n3)cc(=O)[nH]2)cc1OC (single isomer, unassigned) [Example 133, (R)- or (S)-2-(3,4-dimethoxybenzyl)-6-(3-(1-(4-(trifluoromethyl)phenyl)ethyl)-1H-pyrazol-1-yl)pyrimidin-4(3H)-one]
8 |  | 66.6 nM | COc1ccc(Cc2nc(-n3ccc(C(C)c4ccc(C(F)(F)F)cc4)n3)cc(=O)[nH]2)cc1OC (single isomer, unassigned) [Example 134, (R)- or (S)-2-(3,4-dimethoxybenzyl)-6-(3-(1-(4-(trifluoromethyl)phenyl)ethyl)-1H-pyrazol-1-yl)pyrimidin-4(3H)-one]
9 |  | 91.9 nM | Cc1nc(-c2cnn(C(C)c3ccc(C(F)(F)F)cc3F)c2)cc(=O)[nH]1 (single isomer, unassigned) [Example 135, (R)- or (S)-6-(1-(1-(2-fluoro-4-(trifluoromethyl)phenyl)ethyl)-1H-pyrazol-4-yl)-2-methylpyrimidin-4(3H)-one]
10 | 19.1 nM | 7.6 nM | Cc1nc(-c2cnn(C(C)c3ccc(C(F)(F)F)cc3F)c2)cc(=O)[nH]1 (single isomer, unassigned) [Example 136, (S)- or (R)-6-(1-(1-(2-fluoro-4-(trifluoromethyl)phenyl)ethyl)-1H-pyrazol-4-yl)-2-methylpyrimidin-4(3H)-one]
11 | 7.1 nM | 5.1 nM | COc1ccc(Cc2nc(-c3cnn(C(C)c4ccc(C(F)(F)F)cc4F)c3)cc(=O)[nH]2)cc1 (single isomer, unassigned) [Example 138, (R)- or (S)-6-(1-(1-(2-fluoro-4-(trifluoromethyl)phenyl)ethyl)-1H-pyrazol-4-yl)-2-(4-methoxybenzyl)pyrimidin-4(3H)-one]
12 | 41.6 nM | 24.5 nM | COc1ccc(Cc2nc(-c3cnn(C(C)c4ccc(C(F)(F)F)cc4F)c3)cc(=O)[nH]2)cc1 (single isomer, unassigned) [Example 139, (S)- or (R)-6-(1-(1-(2-fluoro-4-(trifluoromethyl)phenyl)ethyl)-1H-pyrazol-4-yl)-2-(4-methoxybenzyl)pyrimidin-4(3H)-one]
13 | 2.6 nM |  | COc1cccc(Cc2nc(-c3cnn(C(C)c4ccc(C(F)(F)F)cc4F)c3)cc(=O)[nH]2)c1 (single isomer, unassigned) [Example 140, (R)- or (S)-6-(1-(1-(2-fluoro-4-(trifluoromethyl)phenyl)ethyl)-1H-pyrazol-4-yl)-2-(3-methoxybenzyl)pyrimidin-4(3H)-one]
14 | 17.3 nM |  | COc1cccc(Cc2nc(-c3cnn(C(C)c4ccc(C(F)(F)F)cc4F)c3)cc(=O)[nH]2)c1 (single isomer, unassigned) [Example 141, (S)- or (R)-6-(1-(1-(2-fluoro-4-(trifluoromethyl)phenyl)ethyl)-1H-pyrazol-4-yl)-2-(3-methoxybenzyl)pyrimidin-4(3H)-one]
15 | 3.5 nM |  | COc1cc(Cc2nc(-c3cnn(C(C)c4ccc(C(F)(F)F)cc4F)c3)cc(=O)[nH]2)ccc1F (single isomer, unassigned) [Example 142, (R)- or (S)-2-(4-fluoro-3-methoxybenzyl)-6-(1-(1-(2-fluoro-4-(trifluoromethyl)phenyl)ethyl)-1H-pyrazol-4-yl)pyrimidin-4(3H)-one]
16 | 27.9 nM |  | COc1cc(Cc2nc(-c3cnn(C(C)c4ccc(C(F)(F)F)cc4F)c3)cc(=O)[nH]2)ccc1F (single isomer, unassigned) [Example 143, (S)- or (R)-2-(4-fluoro-3-methoxybenzyl)-6-(1-(1-(2-fluoro-4-(trifluoromethyl)phenyl)ethyl)-1H-pyrazol-4-yl)pyrimidin-4(3H)-one]
17 | 31.2 nM |  | COc1ccc(Cc2nc(-c3cnn(C(C)c4ccc(C(F)(F)F)cc4F)c3)cc(=O)[nH]2)cc1F (single isomer, unassigned) [Example 146, (R)- or (S)-6-(1-(1-(2-fluoro-4-(trifluoromethyl)phenyl)ethyl)-1H-pyrazol-4-yl)-2-(3-fluoro-4-methoxybenzyl)pyrimidin-4(3H)-one]

Continued, compound first:

Row | Structure (SMILES) | Ki [1] | Ki [2]
18 | COc1ccc(Cc2nc(-c3cnn(C(C)c4ccc(C(F)(F)F)cc4)c3)cc(=O)[nH]2)cc1OC (single isomer, unassigned) [Example 61, (S)- or (R)-2-(3,4-dimethoxybenzyl)-6-(1-(1-(4-(trifluoromethyl)phenyl)ethyl)-1H-pyrazol-4-yl)pyrimidin-4(3H)-one] | 2.4 nM | 0.9 nM
19 | Cc1nc(-c2cnn(C(C)c3ccc(S(F)(F)(F)(F)F)cc3)c2)cc(=O)[nH]1 (single isomer, unassigned) [Example 62, (R)- or (S)-2-methyl-6-(1-(1-(4-(pentafluorosulfanyl)phenyl)ethyl)-1H-pyrazol-4-yl)pyrimidin-4(3H)-one] |  | 86.5 nM
20 | Cc1nc(-c2cnn(C(C)c3ccc(S(F)(F)(F)(F)F)cc3)c2)cc(=O)[nH]1 (single isomer, unassigned) [Example 63, (S)- or (R)-2-methyl-6-(1-(1-(4-(pentafluorosulfanyl)phenyl)ethyl)-1H-pyrazol-4-yl)pyrimidin-4(3H)-one] |  | 46.5 nM
21 | COc1ccc(Cc2nc(-c3cnn(C(C)c4ccc(S(F)(F)(F)(F)F)cc4)c3)cc(=O)[nH]2)cc1OC (single isomer, unassigned) [Example 64, (R)- or (S)-2-(3,4-dimethoxybenzyl)-6-(1-(1-(4-(pentafluorosulfanyl)phenyl)ethyl)-1H-pyrazol-4-yl)pyrimidin-4(3H)-one] | 7.2 nM | 3.3 nM
22 | COc1ccc(Cc2nc(-c3cnn(C(C)c4ccc(S(F)(F)(F)(F)F)cc4)c3)cc(=O)[nH]2)cc1OC (single isomer, unassigned) [Example 65, (S)- or (R)-2-(3,4-dimethoxybenzyl)-6-(1-(1-(4-(pentafluorosulfanyl)phenyl)ethyl)-1H-pyrazol-4-yl)pyrimidin-4(3H)-one 4(3H)-one] | 22 nM | 8.5 nM
23 | COc1ccc(Cc2nc(-c3cnn(C(C)c4ccc(C(F)(F)F)cc4F)c3)cc(=O)[nH]2)cc1OC (single isomer, unassigned) [Example 66, (R)- or (S)-2-(3,4-dimethoxybenzyl)-6-(1-(1-(2-fluoro-4-(trifluoromethyl)phenyl)ethyl)-1H-pyrazol-4-yl)pyrimidin-4(3H)-one] |  | 0.5 nM
24 | COc1ccc(Cc2nc(-c3cnn(C(C)c4ccc(C(F)(F)F)cc4F)c3)cc(=O)[nH]2)cc1OC (single isomer, unassigned) [Example 67] | 0.2 nM | 0.1 nM
25 | Cc1nc(-c2ccn(C(C)c3ccc(C(F)(F)F)cc3)n2)cc(=O)[nH]1 (single isomer, unassigned) [Example 77, (R)- or (S)-2-methyl-6-(1-(1-(4-(trifluoromethyl)phenyl)ethyl)-1H-pyrazol-3-yl)pyrimidin-4(3H)-one] |  | 441 nM
26 | Cc1nc(-c2ccn(C(C)c3ccc(C(F)(F)F)cc3)n2)cc(=O)[nH]1 (single isomer, unassigned) [Example 78, (S)- or (R)-2-methyl-6-(1-{(1R)-1-[4-(trifluoromethyl)phenyl]ethyl}-1H-pyrazol-3-yl)pyrimidin-4(3H)-one] |  | 255 nM
27 | Cc1nc(-c2cnn(C(C)c3ccc(C(F)(F)F)cc3)c2C)cc(=O)[nH]1 (single isomer, unassigned) [Example 81, (R)- or (S)-2-methyl-6-(5-methyl-1-(1-(4-(trifluoromethyl)phenyl)ethyl)-1H-pyrazol-4-yl)pyrimidin-4(3H)-one] |  | 194 nM
28 | Cc1nc(-c2cnn(C(C)c3ccc(C(F)(F)F)cc3)c2C)cc(=O)[nH]1 (single isomer, unassigned) [Example 82, (S)- or (R)-2-methyl-6-(5-methyl-1-{(1R)-1-[4-(trifluoromethyl)phenyl]ethyl}-1H-pyrazol-4-yl)pyrimidin-4(3H)-one] |  | 184 nM
29 | Cc1nc(-c2cnn(C(C)c3ccc(C(F)(F)F)cc3Cl)c2)cc(=O)[nH]1 (single isomer, unassigned) [Example 83, (R)- or (S)-6-(1-(1-(2-chloro-4-(trifluoromethyl)phenyl)ethyl)-1H-pyrazol-4-yl)-2-methylpyrimidin-4(3H)-one] | 5.1 nM | 
